Laboratory results published in US11103488B2, “Methods of treating autoimmune, respiratory and inflammatory disorders by inhalation of roflumilast N-oxide” (Incozen Therapeutics Pvt. Ltd., priority 2013, dated 2021).
Where two headings read alike, the source gives them in different places.

Assays:
[1] = Lung microsome metabolic stability, dog; assay type: in vitro ADME; settings: dog lung microsomes, 1 μM test item, 60 minutes, NADPH
Description: (§1) Metabolic stability studies were conducted using rat, dog and human lung microsomes. The protocol for the studies with rat, dog, and human lung microsomes (from Xenotech, USA) is provided below.
(§2) 0.4 mg protein was preincubated with 2 mM NADPH (cofactor) in phosphate buffer (pH˜7.4) for 15 minutes at […] and then added with 1 μM test item and incubated further for 60 minutes in triplicate. The reaction mixture was terminated with methanol containing an internal standard and centrifuged further to analyze the test item remaining in the supernatant by LC-MS/MS. The percent parent compound remaining was calculated in comparison with similar samples terminated at 0 minutes.

[2] = 7-day repeat dose safety study; assay type: in vivo, Wistar Rats
Description: In order to determine the safety of roflumilast N-oxide by inhalation compared to roflumilast by oral administration, a 7- and 14-day repeat dose safety study was conducted according to the protocol given in Table 5 below.

[3] = Lung microsome metabolic stability, rat; assay type: in vitro ADME; settings: rat lung microsomes, 1 μM test item, 60 minutes, NADPH
Description: as §1, §2

[4] = Pulmonary kinetics by intratracheal route, multiple dose (7 days); assay type: in vivo, Wistar rats; settings: 1 mg/kg IT for 7 days; for Tmax / half-life / AUC(0-inf) / AUC(0-t) / Cmax: 1 mg/kg
Description: (§3) Male and female Wistar rats were weighed and randomized for groups for various time points. Roflumilast N-oxide was prepared as a suspension in a suitable vehicle for intratracheal administration. For intratracheal dosing, animals were anesthetized with ketamine (50 mg/kg; i.p.) and roflumilast N-oxide was administered via an Intratracheal Microsprayer® Aerosolizer for Rat with a 0.5 ml glass syringe (Model IA-1B-R-GL500) (Penn Century, US). A volume level of 0.5 ml/kg was administered into the airway system of the rat at a dose of 1.0 mg/kg for the single dose and multiple dose study. The animals were kept under normal regular diet conditions and rat chew diet was provided ad libitum throughout the study. The blood and lung samples (all collections each of 150 μl from each animal) were collected according to the sampling schedule. Blood samples were collected from orbital sinus into the microfuge tubes containing dipotassium EDTA as an anticoagulant. Blood samples were centrifuged immediately with a speed of 1000 g for 10 minutes at 4° C. and separated plasma samples were frozen at below −80° C. and stored until analysis. The plasma and lung concentrations of roflumilast N-oxide in all samples were analyzed by LC-MS/MS (using X-Calibur 2.0.7 software) as per the established method. The samples below the lower limit of quantification (LOQ) were mentioned as (BLQ) below level of quantification in raw data and the results were tabulated accordingly. Pharmacokinetic parameters Cmax, AUC0-t, AUC0-∞, Tmax, t1/2, Kel, VZ, and CLZ were estimated for the above concentrations using WinNonlin (Phoenix 6.1 software) and the results were tabulated. Pharmacokinetic parameters in plasma were calculated from concentration data as ng/ml. Cmax and AUC values were reported in terms of ng/ml and ng·h/ml, respectively.
(§4) Pharmacokinetic parameters in the lungs were calculated from concentration data as ng/g. Cmax and AUC values were reported in terms of ng/g and ng·h/g, respectively. The lung to plasma concentration ratio was calculated by assuming equal to 1 the plasma density. The time-mean plasma concentration plots for roflumilast N-oxide were done using Graph pad Prism 5.02 software.

[5] = test system: neutrophil infiltration (LPS-induced neutrophilia in BALF); experiment: Lipopolysaccharide (LPS) induced pulmonary neutrophilia; assay type: in vivo, female Sprague-Dawley rat; settings: for ED50: Rattus norvegicus, Neutrophil, inhaled or nasal; for Percent inhibition in neutrophil infiltration: intratracheal dry powder, 30 minutes before LPS
Description: Roflumilast was prepared as a suspension in a suitable vehicle for oral administration. For intratracheal administration, roflumilast or roflumilast N-oxide was prepared as a dry powder mixture and administered by using a dry powder Insufflator (Penn-Century, USA) Animals were anaesthetized with ketamine and LPS solution was administered intratracheally one hour after roflumilast (at a dose of 0.3, 1, 3, and 10 mg/kg orally), or 30 minutes after roflumilast (at a dose of 10, 30 and 100 μg/kg i.t) or roflumilast N-oxide administration (at a dose of 10, 30 and 100 μg/kg, i.t). 6 hours after LPS instillation, animals were exsanguinated under anaesthesia, and then trachea were cannulated and the lungs were lavaged with 5-ml aliquots of heparinised PBS (1 unit/ml) four times through tracheal cannula (total volume 20 ml). BAL (bronchoalveolar lavage) fluid was stored at 2-8° C. until assayed for total cell and differential leukocyte count. Bronchioalveolar fluid was centrifuged (500×g for 10 minutes) and the resulting cell pellet was resuspended in 0.5 ml of heparinized saline. The total number of white blood cells were determined in BAL fluid using a blood cell counter and were adjusted to 1×10^6 cell/ml. Differential cell count was calculated manually. One hundred microliters of the cell suspension was centrifuged using cytospin 3 to prepare a cell smear. The cell smear was stained with a blood staining solution for differentiation and slides were microscopically observed to identify eosinophil according to their morphological characteristics. The number of each cell type among 300 white blood cells in the cell smear was determined and expressed as a percentage. The total number of neutrophils in each BAL fluid was calculated.
Roflumilast and roflumilast N-oxide were administered intratracheally (i.t) at doses of 100, 30, and 10 μg/kg as 1:200; 1:500; and 1:1000 drug:lactose blends, respectively.

[6] = Pulmonary kinetics by intratracheal route, single dose; assay type: in vivo, Wistar rats; settings: single dose 1 mg/kg IT
Description: as §3, §4

For `O=C(Nc1c(Cl)c[n+]([O-])cc1Cl)c1ccc(OC(F)F)c(OCC2CC2)c1` [Roflumilast N-oxide], the “Percent Parent Compound Remaining, Dog” value [1] was 98.3%, the MORTALITY ([2]; Intratracheal, 1000 ug/kg/day, 7 days) was “No Mortality” and the “Therapeutic window (safe dose relative to ED50)” value ([2]; intratracheal 1000 μg/kg versus ED50 of 27 μg/kg) was “more than 37 fold”. For the same molecule, the “Overall safety in repeat dose study” value ([2]; intratracheal administration, 1000 μg/kg) was “found to be safe”, the “Percent Parent Compound Remaining, Rat” value [3] was 100.0% and the “AUC0-inf, Lung, Day-1, N-Oxide” value ([4]; lung, Day-1) was 47.96 µg·h/g. For the same molecule, the “AUC0-t, Lung, Day-1, N-Oxide” value ([4]; lung, Day-1) was 47.88 µg·h/g, the “Cmax, Lung, Day-1, N-Oxide” value ([4]; lung, Day-1) was 26.35 µg/g and the “AUC0-inf, Lung, Day-7, N-Oxide” value ([4]; lung, Day-7) was 18.04 µg·h/g. For the same molecule, the “AUC0-t, Lung, Day-7, N-Oxide” value ([4]; lung, Day-7) was 17.96 µg·h/g, the “AUCtau, Lung, Day-7, N-Oxide” value ([4]; lung, Day-7) was 18.51 µg·h/g and the “Cavg, Lung, Day-7, N-Oxide” value ([4]; lung, Day-7) was 0.77 µg/g. For the same molecule, the “Cmax, Lung, Day-7, N-Oxide” value ([4]; lung, Day-7) was 23.15 µg/g, the “Cmin, Lung, Day-7, N-Oxide” value ([4]; lung, Day-7) was 0.00 µg/g and the “Cavg, Plasma, Day-7, N-Oxide” value ([4]; plasma, Day-7) was 120 ng/mL. The “Cmin, Plasma, Day-7, N-Oxide” value ([4]; plasma, Day-7) was 0 ng/mL, the AUC ([4]; both sexes, Wistar, rat, inhaled or intranasal, plasma, Day-7, read-out: AUCtau, Plasma, Day-7, N-Oxide) was 2810 ng·h/mL and the Tmax ([4]; both sexes, Wistar, rat, lung, inhaled or intranasal, lung, Day-1, read-out: Tmax, Lung, Day-1, N-Oxide) was 15 min. It also gave a half-life ([4]; both sexes, Wistar, rat, lung, inhaled or intranasal, lung, Day-1, read-out: t1/2, Lung, Day-1, N-Oxide (converted)) of 152 min, a Tmax ([4]; both sexes, Wistar, rat, lung, inhaled or intranasal, lung, Day-7, read-out: Tmax, Lung, Day-7, N-Oxide) of 15 min and a half-life ([4]; both sexes, Wistar, rat, lung, inhaled or intranasal, lung, Day-7, read-out: t1/2, Lung, Day-7, N-Oxide (converted)) of 48.6 min. The AUC(0-inf) ([4]; both sexes, Wistar, rat, plasma, inhaled or intranasal, plasma, Day-1, read-out: AUC0-inf, Plasma, Day-1, N-Oxide) was 4350 ng·h/mL, the AUC(0-t) ([4]; both sexes, Wistar, rat, plasma, inhaled or intranasal, plasma, Day-1, read-out: AUC0-t, Plasma, Day-1, N-Oxide) was 4160 ng·h/mL and the Cmax ([4]; both sexes, Wistar, rat, plasma, inhaled or intranasal, plasma, Day-1, read-out: Cmax, Plasma, Day-1, N-Oxide) was 530 ng/mL. It also gave a Tmax ([4]; both sexes, Wistar, rat, plasma, inhaled or intranasal, plasma, Day-1, read-out: Tmax, Plasma, Day-1, N-Oxide) of 15 min, a half-life ([4]; both sexes, Wistar, rat, plasma, inhaled or intranasal, plasma, Day-1, read-out: t1/2, Plasma, Day-1, N-Oxide (converted)) of 326 min and an AUC(0-inf) ([4]; both sexes, Wistar, rat, plasma, inhaled or intranasal, plasma, Day-7, read-out: AUC0-inf, Plasma, Day-7, N-Oxide) of 2390 ng·h/mL. The AUC(0-t) ([4]; both sexes, Wistar, rat, plasma, inhaled or intranasal, plasma, Day-7, read-out: AUC0-t, Plasma, Day-7, N-Oxide) was 2250 ng·h/mL, the Cmax ([4]; both sexes, Wistar, rat, plasma, inhaled or intranasal, plasma, Day-7, read-out: Cmax, Plasma, Day-7, N-Oxide) was 560 ng/mL and the Tmax ([4]; both sexes, Wistar, rat, plasma, inhaled or intranasal, plasma, Day-7, read-out: Tmax, Plasma, Day-7, N-Oxide) was 60 min. It also gave a half-life ([4]; both sexes, Wistar, rat, plasma, inhaled or intranasal, plasma, Day-7, read-out: t1/2, Plasma, Day-7, N-Oxide (converted)) of 91.8 min, an ED50 ([5]; Intratracheal (Table 5), read-out: ED50 in Lipopolysaccharide induced pulmonary neutrophilia in female Sprague-Dawley rat model) of 0.027 mg/kg and an ED50 ([5]; intratracheal administration, read-out: 50% inhibition (ED50) dose, neutrophil infiltration) of 0.027 mg/kg. The “Percent inhibition in neutrophil infiltration” value (“Percent inhibition” below) ([5]; 10 μg/kg) was 37.52%, the “Percent inhibition” value ([5]; 30 μg/kg) was 49.66% and the “Percent inhibition” value ([5]; 100 μg/kg) was 69.48%. The Tmax ([6]; both sexes, Wistar, rat, inhaled or intranasal, lung, read-out: Tmax, Lung, N-Oxide) was 15 min, the half-life ([6]; both sexes, Wistar, rat, inhaled or intranasal, lung, read-out: t1/2, Lung, N-Oxide (converted)) was 152 min and the AUC(0-t) ([6]; both sexes, Wistar, rat, inhaled or intranasal, plasma, read-out: AUC0-t, Plasma, N-Oxide) was 4160 ng·h/mL. It also gave a Cmax ([6]; both sexes, Wistar, rat, inhaled or intranasal, plasma, read-out: Cmax, Plasma, N-Oxide) of 530 ng/mL, a Tmax ([6]; both sexes, Wistar, rat, inhaled or intranasal, plasma, read-out: Tmax, Plasma, N-Oxide) of 15 min and a half-life ([6]; both sexes, Wistar, rat, inhaled or intranasal, plasma, read-out: t1/2, Plasma, N-Oxide (converted)) of 326 min. For the same molecule, the “AUC0-inf, Lung, N-Oxide” value ([6]; lung) was 47960 ng·h/g, the “AUC0-t, Lung, N-Oxide” value ([6]; lung) was 47880 ng·h/g and the “Cmax, Lung, N-Oxide” value ([6]; lung) was 26350 ng/g.
